Measurements as given in patent US7608642B2, “Wound and skin care compositions” (Kimberly-Clark Worldwide, Inc., priority 2002, dated 2009).
“And” between values parts separate entries of the source, which are not always exact repeats. Equal values may be shown once. “Also recorded” adds a separate entry of the source.

Tests used:
[1] = tested on: human skin keratinocyte cell line (normal human epidermal keratinocytes, neonatal); assay: Proliferation of human skin keratinocytes (Cell Titer 96, absorbance 490 nm); format: cell-based; conditions: for Mean optical density (OD) at 490 nm, cell proliferation / Median optical density (OD) at 490 nm, cell proliferation: 48 hours, KBM, n=5
Protocol: In addition, 100 μl of vehicle KBM was added to 5 wells as control. […] The spectrophotometric absorbance of each well was read at 490 nm.

[2] = tested on: collagen production in the human skin fibroblast cell line; assay: Collagen production in human skin fibroblasts (Takara EIA kit MK101, absorbance 450 nm); format: cell-based; conditions: for Mean optical density (OD) at 450 nm, collagen production / Median optical density (OD) at 450 nm, collagen production: 48 hours, n=2
Protocol: The cells were first grown in a 96-well assay system using Dulbecco's Modified Eagle's Medium (DMEM) with 10% fetal bovine serum (FBS) both purchased from Sigma Chemical Co, St. Louis, Mo. Serum-free DMEM was used as a control.
The assay was done by using the recommended 20 ul of the supernatant from each well of the 96-well plate. Standard buffer and stop solutions were freshly prepared before running the assay. 100 ul of antibody-POD conjugate solution (supplied with the kit) was added into the wells using pre antibody coated 96 well plate (supplied with the kit). 20 ul of standard and test solutions (from the other 96-well plate containing fibroblasts) were added to appropriate wells. Plate was mixed gently, sealed and incubated for three hrs. at 37° C.
After incubation each well was washed carefully four times with PBS buffer (400 ul). All the wells were completely emptied at the end of washing from any liquid.
100 ul of substrate solution (hydrogen peroxide and tetramethylbenzidine in a buffer solution, supplied with the kit) was added to each well and the plate was incubated for 15 minutes. At this point 100 ul of stop solution (freshly prepared 1N H2SO4) was added to each well in the same order as substrate. The plate was gently mixed and absorbance was read at 450 nm.

[3] = tested on: fibronectin production in the human skin fibroblast cell line; assay: Fibronectin production in human skin fibroblasts (Takara EIA kit MK115, absorbance 450 nm); format: cell-based; conditions: for Mean optical density (OD) at 450 nm, fibronectin production / Median optical density (OD) at 450 nm, fibronectin production: 48 hours, n=2
Protocol: The cells were first grown in a 96-well assay system using Dulbecco's Modified Eagle's Medium (DMEM) with 10% fetal bovine serum (FBS) both purchased from Sigma Chemical Co, St. Louis, Mo. Serum-free DMEM was used as a control. […] The fibronectin assay was performed using the recommended 100 μl of the supernatant from each well of the 96-well plate. Standard buffer and stop solutions were freshly prepared before running the assay. A pre-antibody-coated 96 well plate (provided with the kit) was used to transfer the test samples and control. The plate was mixed, sealed and incubated for 1 hour at 37° C. All the wells were washed after removing sample solutions, 3 times (300 μl) with washing buffer. 100 ul of antibody-POD conjugate solution was added into the wells. Plate was mixed, sealed and incubated for one hour at 37° C. Solutions were removed and the wells were washed 3 times with washing buffer. All the wells were completely emptied at the end of washing from any liquid. 100 μl of substrate solution (hydrogen peroxide and tetramethylbenzidine in a buffered solution) was added to each well and the plate was incubated at room temperature for 15 minutes. 100 μl of stop solution (freshly prepared 1N H2SO4) was added to each well in the same order as substrate. The plate was gently mixed and absorbance was read at 450 nm.

Swiss Albino mice = assay: Wound healing, full thickness skin wounds (3 mm biopsy punch) in mice; format: in vivo, mouse
Protocol: Twenty, 12-week old Swiss Albino mice were anesthetized with a ketamine/acepromazine cocktail and subjected to four full thickness skin wounds on the dorsolateral surface. […] Jasmonic acid (100 mg) was dissolved in 2 ml ethanol. 200 μl of the resulting solution was then added to 4.8 ml of WFI. Four wounds were made on either side of the spinal column using a 3 mm biopsy punch. To make the wounds, the skin was first tented and the punch was driven through the tented skin to generate both wounds with a single stroke. The upper left quadrant wound site of the animal was assigned to receive the control solution (WFI). […] The wound sites were dosed 5 times (twice on Day 0, Day 1, and once on Day 2). All wounds were treated with 5 μl of test or control solutions. Wounds were allowed to absorb the solutions for 5 minutes before returning the animals to their cages for recovery. All the animals were housed singly. The in-life phase for the animals is 5 days. Each day the wounds on the mice were traced onto glass slides and measured using calipers accurate to the nearest 0.1 mm. Photographs of the wounds were also taken daily for the duration of the study to measure wound size. Means and the standard deviations of the wound diameters for each day were calculated for the healing profile. The effects of the test substances on wound healing were compared to the effects of the control (WFI).

[4] = tested on: healthy female volunteers; assay: Dansyl chloride cell renewal study (stratum corneum renewal time); format: in vivo, human
From the text: The stratum corneum renewal time is the time taken for the whole thickness of the stratum corneum to be exfoliated and replaced by new cells from the dividing epidermis. This renewal time is a fundamental indicator of skin health. […] See Jansen L H, Hojyo-Tomoko M T, Kligman A M., Improved fluorescence staining technique for estimating turnover of the human stratum corneum, Br J Dermatol., 90, 9-12, 1974; Ridge B D, Batt M D, Palmer H E, Jarrett A, The dansyl chloride technique for stratum corneum renewal as an indicator of changes in epidermal mitotic activity following topical treatment., Br J Dermatol., 118, 167-74, 1988; Grove G L, Kligman A M, Age-associated changes in human epidermal cell renewal., J Geron., 38, 137-142, 1983. The time required for the dye to disappear is therefore an indication of the turnover time of the stratum corneum. Therefore, any differences in the time required for the dye to disappear from treated and non-treated sites can be considered to be an expression of that product's ability to enhance epidermal renewal.
A dansyl chloride cell renewal study was conducted in healthy female volunteers ranging from 43-64 years of age. The study consisted of a two-week treatment period during which time the products were applied topically twice daily, including on weekend days, to the test sites. The area of application was designated, approximately 5 cm×10 cm on the upper inner arm. The other arm served as a control with no product application. […] Eight females received jasmonic acid and seven females received gibberellic acid.
The time required for a marker dye to disappear was used as the measure of cell renewal rate.

[5] = 1×10^−4 M to 1×10^−6 M vs control

For `CC/C=C\C[C@H]1C(=O)CC[C@@H]1CC(=O)O` [jasmonic acid], the “Cell proliferating activity on human keratinocytes (in words)” value [1, 5] was “strong cell proliferating activity especially at the lower concentrations; also recorded: all concentrations of jasmonic acid had an effect on cell growth”, the “Mean optical density (OD) at 490 nm, cell proliferation” value (shortened to “Mean optical density (OD) at 490 nm”) ([1]; 1×10^−4 M) was 0.5732 and the “Median optical density (OD) at 490 nm, cell proliferation” value (“Median optical density (OD) at 490 nm” for short) ([1]; 1×10^−4 M) was 0.5860. The “Mean optical density (OD) at 490 nm” value ([1]; 1×10^−5 M) was 0.7628, the “Median optical density (OD) at 490 nm” value ([1]; 1×10^−5 M) was 0.7750 and the “Mean optical density (OD) at 490 nm” value ([1]; 1×10^−6 M) was 0.7734. The “Median optical density (OD) at 490 nm” value ([1]; 1×10^−6 M) was 0.7970, the “Stimulation of collagen production (in words)” value [2, 5] was “strongly stimulated collagen production at higher concentrations; also recorded: Higher concentrations of jasmonic acid and medium concentrations of zeatin also stimulated collagen production” and the “Mean optical density (OD) at 450 nm, collagen production” value ([2]; 1×10^−4 M) was 0.8040. The “Median optical density (OD) at 450 nm, collagen production” value ([2]; 1×10^−4 M) was 0.8040, the “Mean optical density (OD) at 450 nm, collagen production” value ([2]; 1×10^−5 M) was 0.7895 and the “Median optical density (OD) at 450 nm, collagen production” value ([2]; 1×10^−5 M) was 0.7895. The “Mean optical density (OD) at 450 nm, collagen production” value ([2]; 1×10^−6 M) was 0.7475, the “Median optical density (OD) at 450 nm, collagen production” value ([2]; 1×10^−6 M) was 0.7475 and the “Stimulation of fibronectin production (in words)” value [3, 5] was “effective for stimulating fibronectin production in human fibroblasts; also recorded: all compounds stimulated fibronectin production”. The “Mean optical density (OD) at 450 nm, fibronectin production” value ([3]; 1×10^−4 M) was 0.2060, the “Median optical density (OD) at 450 nm, fibronectin production” value ([3]; 1×10^−4 M) was 0.2060 and the “Mean optical density (OD) at 450 nm, fibronectin production” value ([3]; 1×10^−5 M) was 0.2025. The “Median optical density (OD) at 450 nm, fibronectin production” value ([3]; 1×10^−5 M) was 0.2025, the “Mean optical density (OD) at 450 nm, fibronectin production” value ([3]; 1×10^−6 M) was 0.1955 and the “Median optical density (OD) at 450 nm, fibronectin production” value ([3]; 1×10^−6 M) was 0.1955. The “Time control-treated wounds required to close to the same extent achieved in jasmonic acid-treated wounds on day 1” value (Swiss Albino mice; topical 0.2% solution vs control (WFI)) was “over 2.5 days”, the “Effect on wound closure / wound healing (in words)” value (Swiss Albino mice; topical 5 μl of 0.2% solution, 5 doses Day 0-2, vs control (WFI)) was “significantly accelerated the rate of wound healing; also recorded: experienced slower wound closure than mice receiving a 0.2% solution of jasmonic acid” and the “Time for cell renewal, treated skin (RENEWAL)” value ([4]; 0.25% in hyaluronic acid (0.5% aqueous solution), topical twice daily for two weeks, upper inner arm, individual patients, listed as JA) was 12 Days (2×) and 16 Days and 15 Days (2×) and 17 Days and 14 Days and 11 Days. The “Skin irritation or redness” value ([4]; in vivo) was “no visible sign of any skin irritation or redness”.
